Values quoted from earlier work as cited in patent publication US10392669B2, “Methods and systems for determination of an effective therapeutic regimen and drug discovery” (DNA-SEQ, INC., priority 2014, dated 2019).
Entries after “also recorded” stand apart in the source; their conditions may differ.

Columns and labels:
[1] = tested on: catalytic cores of kinases; details: cancer patients, bracketed literature reference; for Activating Mutations: known activating mutations within the kinase catalytic core listed for the drug; for Resistant Mutations: known resistance mutations within the kinase catalytic core listed for the drug
kinase DFG motif = details: crystal structure library
ERBB2 T798I = ERBB2 T798I (Homo sapiens, UniProt P04626, T798I); details: Gene ERBB2, Mutation T798I; full finding: Not reported to be in a before/after study, but does cause drug resistance

Structure (SMILES) | Activating Mutations [1] | Resistant Mutations [1] | also measured
C[C@@H](Oc1cc(-c2cnn(C3CCNCC3)c2)cnc1N)c1c(Cl)ccc(F)c1Cl [Crizotinib] | ALK: I117IN, R1275Q [10] | – | –
COc1cc2nccc(Oc3ccc(NC(=O)NC4CC4)c(Cl)c3)c2cc1C(N)=O [Lenvatinib] | RET: C634W, M918T [19] | – | –
Cc1cn(-c2cc(NC(=O)c3ccc(C)c(Nc4nccc(-c5cccnc5)n4)c3)cc(C(F)(F)F)c2)cn1 [Nilotinib] | BCR/ABL: F317L [3] | – | DFG conformation bound (kinase DFG motif): binds the DFG out conformation
COc1cc2ncnc(Nc3ccc(F)c(Cl)c3)c2cc1OCCCN1CCOCC1 [Gefitinib] | EGFR: L858R, L861Q [14] | – | –
C=CC(=O)Nc1cc(Nc2nccc(-c3cn(C)c4ccccc34)n2)c(OC)cc1N(C)CCN(C)C [Osimertinib] | EGFR: T790M [20] | – | –
C#Cc1cccc(Nc2ncnc3cc(OCCOC)c(OCCOC)cc23)c1 [Erlotinib] | EGFR: L858R [12] | – | –
O=C(c1ccc(F)c(F)c1Nc1ccc(I)cc1F)N1CC(O)([C@@H]2CCCCN2)C1 [Cobimetinib] | Braf: V600 mutation [9] | – | –
CS(=O)(=O)CCNCc1ccc(-c2ccc3ncnc(Nc4ccc(OCc5cccc(F)c5)c(Cl)c4)c3c2)o1 [Lapatinib] | – | HER2: L755S [18] | Finding (ERBB2 T798I): Not reported to be in a before/after
Cc1ccc(NC(=O)c2ccc(CN3CCN(C)CC3)cc2)cc1Nc1nccc(-c2cccnc2)n1 [Imatinib] | – | KIT: T670I; also recorded: ABL: T315I [17] | –
CNC(=O)c1cc(Oc2ccc(NC(=O)Nc3ccc(Cl)c(C(F)(F)F)c3)cc2)ccn1 [Sorafenib] | PDGFRA: T674I [26] | FIP1LI-PDGFRA: D842V | –
